Each structure is given as a SMILES string.

Results on 57 compounds are retold here after US8981094B2, “Piperidine/piperazine derivatives” (Janssen Pharmaceutica N.V., priority 2007, dated 2015).

One series has as its target T1, human DGAT1 (Homo sapiens, UniProt O75907).
T1 construct: FLAG (N); made in house; host or cells: SF9 insect cells (pFastBac baculovirus); total cell membranes
T1 sequence (O75907 1-488): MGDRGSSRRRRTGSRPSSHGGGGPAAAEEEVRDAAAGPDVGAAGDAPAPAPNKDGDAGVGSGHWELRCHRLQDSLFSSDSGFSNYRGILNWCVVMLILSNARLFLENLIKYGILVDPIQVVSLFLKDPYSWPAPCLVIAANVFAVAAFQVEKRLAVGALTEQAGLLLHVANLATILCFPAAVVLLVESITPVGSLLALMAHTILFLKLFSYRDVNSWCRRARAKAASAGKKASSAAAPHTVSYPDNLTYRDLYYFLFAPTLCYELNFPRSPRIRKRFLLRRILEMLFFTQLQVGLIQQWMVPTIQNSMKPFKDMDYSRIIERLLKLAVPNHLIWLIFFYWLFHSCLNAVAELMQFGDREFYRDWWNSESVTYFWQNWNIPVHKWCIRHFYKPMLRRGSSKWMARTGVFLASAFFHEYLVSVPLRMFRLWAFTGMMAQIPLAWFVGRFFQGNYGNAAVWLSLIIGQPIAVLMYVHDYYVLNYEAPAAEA
The experiment in a line: Inhibition of DGAT1 activity, FlashPlate assay with DGAT1 membrane preparations and substrate micelles. The class given is biochemical. The settings on record: pIC50 = -logIC50, IC50 values expressed in M. In outline:
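FLAG-tagged human DGAT1 membranes (expressed in Sf9 cells) were incubated 120 min at 37° C. in 50 mM Tris-HCl pH 7.4 with 150 mM MgCl2, 1 mM EDTA, 0.2% BSA, 50 μM DAG micelles (PC/PS) and 8.4 μM [^3H]-oleoylCoA. The reaction was stopped with N-ethylmaleimide and read as FlashPlate radioluminescence. Responses were normalized to enzyme/no-enzyme controls to fit dose-response curves.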

Take `O=C(CCCc1ccccc1)Nc1ccc(N2CCN(C(=O)Nc3c(F)cc(Br)cc3F)CC2)cc1` [Compound 49]: the melting point is 207.9 °C. Besides, the midpoint of inhibition against human DGAT1, the IC50, lay at 120 nM.
Taken in the same sequence, the figures for `COc1ccc(CN(CCC(=O)Nc2ccc(N3CCN(C(=O)Nc4c(Cl)cccc4Cl)CC3)cc2)S(=O)(=O)c2ccccc2[N+](=O)[O-])cc1` [Compound 173] were 197 to 199 °C and 34.7 nM.
For `Cc1cccc(Cl)c1NC(=O)N1CCN(c2ccc(NC(=O)CCCc3ccccc3)cc2)CC1` [Compound 60], in that order: 240.7 °C and 12.6 nM.
For `CC(C)C(=O)N(C)CC(=O)Nc1ccc(N2CCN(C(=O)Nc3c(Cl)cccc3Cl)CC2)cc1` [Compound 166], in that order: 232 to 234 °C and 63.1 nM.
Compound `COCCOCC(=O)Nc1ccc(N2CCN(C(=O)Nc3c(Cl)cccc3Cl)CC2)cc1` [Compound 45] gave a melting point of 178.7 °C. Besides, the half-inhibitory concentration (IC50) at human DGAT1 was 2340 nM.
For `CC(c1cc(Cl)c(NC(=O)N2CCN(c3ccc(NC(=O)CCCc4ccccc4)cc3)CC2)c(Cl)c1)N(C)C` (stereo not drawn) [Compound 288], in that order: 191.86 °C and 10 nM.
Regarding `CN(C)C(=O)CN(C)C(=O)c1cc(Cl)c(NC(=O)N2CCN(c3ccc(NC(=O)CCCc4ccccc4)cc3)CC2)c(Cl)c1` [Compound 296], the IC50 on human DGAT1 was 14.8 nM.
Still for that read-out and setting: to `O=C(CCCc1ccccc1)Nc1ccc(N2CCN(C(=O)C(O)c3ccc(F)cc3)CC2)cc1` (stereo not drawn) [Compound 344] belongs 4070 nM.
Same read-out and setting: then `COc1cc(Cl)c(NC(=O)N2CCN(c3ccc(NC(=O)CCCc4ccccc4)cc3)CC2)c(Cl)c1` [Compound 190], with 6.17 nM; and `COCC(NC(=O)OC(C)(C)C)C(=O)Nc1ccc(C2CCN(C(=O)Nc3c(Cl)cccc3Cl)CC2)cc1` (stereo not drawn) [Compound 209], with 166 nM; and `O=C(CCCc1ccccc1)Nc1ccc(N2CCN(C(=O)Nc3c(Cl)cc(C(=O)N4CCOCC4)cc3Cl)CC2)cc1` [Compound 294], with 12.3 nM.
The compound `CCC(C(=O)Nc1ccc(N2CCN(C(=O)Cc3ccccc3C)CC2)cc1)c1ccccc1` (stereo not drawn) [Compound 336] had an IC50 against human DGAT1 of 692 nM.
On the same count and under the same terms, then `CC(N)C(=O)Nc1ccc(C2CCN(C(=O)Nc3c(Cl)cccc3Cl)CC2)cc1` (stereo not drawn) [Compound 148], with 7080 nM; and `COc1ccc(CNC(=O)c2ccc(N3CCN(C(=O)Nc4c(Cl)cncc4Cl)CC3)cc2)cc1` [Compound 245], with 145 nM.
On the same count and under the same terms, to `O=C(CCCc1ccccc1)Nc1ccc(N2CCN(C(=O)C(O)c3ccc(F)c(F)c3)CC2)cc1` (stereo not drawn) [Compound 341] belongs 3720 nM; to `CC(NCCCO)c1cc(Cl)c(NC(=O)N2CCN(c3ccc(NC(=O)CCCc4ccccc4)cc3)CC2)c(Cl)c1` (stereo not drawn) [Compound 57], 10.7 nM.
The same measure, in the same setting: then `CC(=O)NCCNC(=O)c1cc(Cl)c(NC(=O)N2CCN(c3ccc(NC(=O)CCCc4ccccc4)cc3)CC2)c(Cl)c1` [Compound 314], with 51.3 nM; and `C=CCC(NC(=O)OC(C)(C)C)C(=O)Nc1ccc(C2CCN(C(=O)Nc3c(Cl)cccc3Cl)CC2)cc1` (stereo not drawn) [Compound 207], with 209 nM; and `C#CCCC(=O)Nc1ccc(C2CCN(C(=O)Nc3c(Cl)cccc3Cl)CC2)cc1` [Compound 129], with 245 nM.
In turn, `O=C(CCc1ccco1)Nc1ccc(N2CCN(C(=O)Nc3c(Cl)cccc3Cl)CC2)cc1` [Compound 143] had an IC50 on human DGAT1 of 18.2 nM.
Still for that read-out and setting: to `COc1ccc(CC(=O)Nc2ccc(N3CCN(C(=O)Nc4c(Cl)cccc4Cl)CC3)cc2)cc1` [Compound 144] belongs 5.75 nM; to `C#CCCC(=O)Nc1ccc(N2CCN(C(=O)Nc3c(Cl)cccc3Cl)CC2)cc1` [Compound 139], 120 nM.
On human DGAT1, `COC(=O)CCCC(=O)Nc1ccc(C2CCN(C(=O)Nc3c(Cl)cccc3Cl)CC2)cc1` [Compound 126] had an IC50 of 67.6 nM.
The same measure, in the same setting: to `O=C(CN1CCN(c2cccc(C(F)(F)F)c2)CC1)Nc1ccc(C2CCN(C(=O)Nc3c(Cl)cccc3Cl)CC2)cc1` [Compound 103] belongs 398 nM; to `O=C(NCc1ccc2c(c1)OCO2)c1ccc(N2CCN(C(=O)Cc3c(Cl)cccc3Cl)CC2)cc1` [Compound 235], 53.7 nM; to `O=C(CC(=O)OCc1ccccc1)Nc1ccc(N2CCN(C(=O)Nc3c(Cl)cccc3Cl)CC2)cc1` [Compound 277], 4.57 nM.
In turn, `COc1ccc(C)cc1NC(=O)N1CCN(c2ccc(NC(=O)CCCc3ccccc3)cc2)CC1` [Compound 76] showed an IC50 against human DGAT1 of 5620 nM.
Same read-out and setting: then `CCCNCC(=O)Nc1ccc(C2CCN(C(=O)Nc3c(Cl)cccc3Cl)CC2)cc1` [Compound 122], with 562 nM.
The same measure, in the same setting: to `O=C(NCc1cccc(N2CCCC2)c1)c1ccc(N2CCN(C(=O)Nc3c(Cl)cc(CN4CCCC4)cc3Cl)CC2)cc1` [Compound 224] belongs 8.32 nM; to `O=C(CCN1CCCCC1)Nc1ccc(C2CCN(C(=O)Nc3c(Cl)cccc3Cl)CC2)cc1` [Compound 128], 2090 nM.
On the same count and under the same terms, then `CCCCCCCN(C)CC(=O)Nc1ccc(C2CCN(C(=O)Nc3c(Cl)cccc3Cl)CC2)cc1` [Compound 99], with 25.7 nM.
`O=C(CCCc1ccccc1)Nc1ccc(N2CCN(C(=O)Nc3ccccc3[N+](=O)[O-])CC2)cc1` [Compound 80]: at human DGAT1, the half-inhibitory concentration (IC50) is 589 nM.
Still for that read-out and setting: to `CC(C)(C)OC(=O)CCC(=O)Nc1ccc(N2CCN(C(=O)Nc3c(Cl)cccc3Cl)CC2)cc1` [Compound 279] belongs 6.76 nM; to `CC(NC(=O)OC(C)(C)C)C(=O)Nc1ccc(C2CCN(C(=O)Nc3c(Cl)cccc3Cl)CC2)cc1` (stereo not drawn) [Compound 206], 269 nM; to `COc1ccc(CC(=O)Nc2ccc(N3CCN(C(=O)C4(c5c(Cl)cccc5Cl)CC4)CC3)cc2)cc1` [Compound 342], 3980 nM.
On to `CC(NC(=O)c1ccc(N2CCN(C(=O)Cc3c(Cl)cccc3Cl)CC2)cc1)c1ccc(F)cc1` (stereo not drawn) [Compound 250], for which, at human DGAT1, the IC50 was 174 nM.
On to `O=C(CCCc1ccccc1)Nc1ccc(N2CCN(C(=O)C(O)c3ccc(Br)cc3)CC2)cc1` (stereo not drawn) [Compound 349], for which the IC50 at human DGAT1 was 6030 nM.
Still for that read-out and setting: to `COC(=O)CCCC(=O)Nc1ccc(N2CCN(C(=O)Nc3c(Cl)cccc3Cl)CC2)cc1` [Compound 145] belongs 55 nM; to `COc1cc(C(O)C(=O)N2CCN(c3ccc(NC(=O)CCCc4ccccc4)cc3)CC2)ccc1O` (stereo not drawn) [Compound 348], 5250 nM.
The same measure, in the same setting: then `CC(O)c1cc(Cl)c(NC(=O)N2CCN(c3ccc(NC(=O)CCCc4ccccc4)cc3)CC2)c(Cl)c1` (single isomer, unassigned) [Compound 270], with 2.14 nM; and `O=C(CCCc1ccccc1)Nc1ccc(N2CCN(C(=O)C(O)c3c(Cl)cccc3Cl)CC2)cc1` (stereo not drawn) [Compound 315], with 58.9 nM.
Same read-out and setting: to `CC1(C)CCN(CC(=O)Nc2ccc(C3CCN(C(=O)Nc4c(Cl)cccc4Cl)CC3)cc2)CC1` [Compound 108] belongs 251 nM; to `CC(=O)NC1(C(=O)Nc2ccc(N3CCN(C(=O)Nc4c(Cl)cccc4Cl)CC3)cc2)CCCC1` [Compound 2], 2880 nM; to `CC(=O)c1cc(Cl)c(NC(=O)N2CCN(c3ccc(NC(=O)CCCc4ccccc4)cc3)CC2)c(Cl)c1` [Compound 53], 46.8 nM.
`O=C(CC1CCCN1)Nc1ccc(C2CCN(C(=O)Nc3c(Cl)cccc3Cl)CC2)cc1` (stereo not drawn) [Compound 149] had an IC50 at human DGAT1 of 7240 nM. Against the preceding compound, the IC50 is about 150-fold higher.
On the same count and under the same terms, then `CC(C)(C)OC(=O)CC(=O)Nc1ccc(N2CCN(C(=O)Nc3c(Cl)cccc3Cl)CC2)cc1` [Compound 282], with 7.76 nM.
The same measure, in the same setting: to `CC(C)(C)OC(=O)NC(CO)C(=O)Nc1ccc(C2CCN(C(=O)Nc3c(Cl)cccc3Cl)CC2)cc1` (stereo not drawn) [Compound 204] belongs 1910 nM; to `CCOC(=O)CCCC(=O)Nc1ccc(N2CCN(C(=O)Nc3c(Cl)cccc3Cl)CC2)cc1` [Compound 297], 15.1 nM.
The compound `O=C(CCCc1ccccc1)Nc1ccc(N2CCN(C(=O)Nc3c(Cl)cc(OC(F)(F)F)cc3Cl)CC2)cc1` [Compound 13] showed an IC50 on human DGAT1 of 29.5 nM.
Still for that read-out and setting: to `O=C(NCc1cc(F)cc(F)c1)c1ccc(N2CCN(C(=O)Cc3c(Cl)cccc3Cl)CC2)cc1` [Compound 252] belongs 234 nM.
Same read-out and setting: then `Cc1cccc(NCC(=O)Nc2ccc(C3CCN(C(=O)Nc4c(Cl)cccc4Cl)CC3)cc2)c1` [Compound 97], with 49 nM; and `O=C(CN1CCC(F)(F)CC1)Nc1ccc(C2CCN(C(=O)Nc3c(Cl)cccc3Cl)CC2)cc1` [Compound 107], with 182 nM.
On the same count and under the same terms, then `O=C(CC(c1ccc(Cl)cc1)c1ccc(Cl)cc1)c1ccc(N2CCN(C(=O)Nc3c(Cl)cccc3Cl)CC2)cc1` [Compound 162], with 112 nM; and `O=C(CNCC1CC1)Nc1ccc(C2CCN(C(=O)Nc3c(Cl)cccc3Cl)CC2)cc1` [Compound 116], with 575 nM; and `CCC(=O)N(C)CC(=O)Nc1ccc(N2CCN(C(=O)Nc3c(Cl)cccc3Cl)CC2)cc1` [Compound 170], with 245 nM.
`O=C(CN1CCCCC1)Nc1ccc(C2CCN(C(=O)Nc3c(Cl)cccc3Cl)CC2)cc1` [Compound 112] gave an IC50 against human DGAT1 of 794 nM.
Still for that read-out and setting: then `CN(C)CCNC(=O)c1cc(Cl)c(NC(=O)N2CCN(c3ccc(NC(=O)CCCc4ccccc4)cc3)CC2)c(Cl)c1` [Compound 321], with 91.2 nM.
